{"source": "paper PMC9794768", "about": "“Molecular mechanism of substrate recognition by folate transporter SLC19A1” (Cell Discovery, 2022)", "key": {"SLC19A1 [1]": {"target": "T1, SLC19A1 (Homo sapiens, UniProt P41440)", "T1 sequence (P41440 1-591)": "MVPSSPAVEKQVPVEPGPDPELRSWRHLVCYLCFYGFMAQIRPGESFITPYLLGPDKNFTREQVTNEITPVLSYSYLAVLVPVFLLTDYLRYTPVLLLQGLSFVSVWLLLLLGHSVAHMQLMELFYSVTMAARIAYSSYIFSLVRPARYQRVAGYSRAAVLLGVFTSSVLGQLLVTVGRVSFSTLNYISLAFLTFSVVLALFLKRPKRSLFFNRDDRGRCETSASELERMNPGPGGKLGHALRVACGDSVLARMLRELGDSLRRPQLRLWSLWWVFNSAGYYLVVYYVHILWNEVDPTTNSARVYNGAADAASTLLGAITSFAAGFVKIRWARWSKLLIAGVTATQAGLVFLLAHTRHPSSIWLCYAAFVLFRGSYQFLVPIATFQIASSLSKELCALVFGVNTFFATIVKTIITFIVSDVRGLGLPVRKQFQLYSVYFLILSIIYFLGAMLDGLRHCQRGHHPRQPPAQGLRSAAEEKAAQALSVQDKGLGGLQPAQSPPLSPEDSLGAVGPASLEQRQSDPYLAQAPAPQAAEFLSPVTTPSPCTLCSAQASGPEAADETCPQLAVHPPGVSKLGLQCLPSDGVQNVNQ", "test": "FSEC-based thermostability in detergent lysate; [3H]-MTX uptake competition in HEK293F cells at […]", "format": "cell-based", "parameters": "GFP-tagged SLC19A1"}, "SLC19A1 [2]": {"target": "T1, SLC19A1", "test": "cryo-EM structure at […] Å and MST; also [3H]-MTX uptake inhibition (IC50 […]) and FSEC thermostability", "format": "binding", "parameters": "full-length SLC19A1 (MST); BRIL-SLC19A1/Fab/Nb (cryo-EM)"}, "SLC19A1 [3]": {"target": "T1, SLC19A1", "test": "[3H]-MTX uptake competition in HEK293F cells at […]; FSEC-based thermostability in detergent lysate", "format": "cell-based", "parameters": "GFP-tagged SLC19A1"}}}
{"smiles": "Nc1nc(=O)c2nc(CNc3ccc(C(=O)N[C@@H](CCC(=O)O)C(=O)O)cc3)cnc2[nH]1", "note": "[folate]", "values": [{"measurement": "FSEC-based thermostability in detergent lysate; [3H]-MTX uptake competition in H", "setting": "SLC19A1 [1]", "value": "the well-documented substrates 5-MTHF and folate significantly enhanced the thermostability of SLC19A1"}]}
{"smiles": "Cc1ncc(C[n+]2csc(CCO[P@](=O)(O)OP(=O)(O)O)c2C)c(N)n1", "note": "[TPP, thiamine pyrophosphate]", "values": [{"measurement": "Kd", "setting": "SLC19A1 [2]", "value": "327 ± 76", "unit": "µM"}]}
{"smiles": "Cc1ncc(C[n+]2csc(CCOP(=O)(O)O)c2C)c(N)n1", "note": "[TMP, Thiamine monophosphate]", "values": [{"measurement": "[3H]-MTX uptake competition in HEK293F cells at 200 μM; FSEC-based thermostabili", "setting": "SLC19A1 [3]", "value": "TMP effectively competed with [^3H]-MTX in the transporter assay and enhanced the thermostability of SLC19A1"}]}
